Test results reported in patent publication US9920032B2, “Heterocyclic compounds useful as pim kinase inhibitors” (Incyte Corporation, priority 2015, dated 2018).

Experiments:
Format in all cases: biochemical
Pim-2 = Pim-2 (Homo sapiens (Human), UniProt Q9P1W9); assay: Pim-2 kinase assay; conditions: 1 mM ATP; read-out: PIM2 IC50
Procedure, shortened: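 TR-FRET assay with 1 nM enzyme, 0.05 μM fluorescein-CREBtide and 1 mM ATP in Tris pH 7.5 buffer with MgCl2, DTT, BSA and Tween-20, run 2 h at 25° C. Stopped with EDTA and Tb-labelled anti-CREB pSer133 antibody, then read after 30 min at room temperature.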

Pim-1 = Pim-1 (Homo sapiens (Human), UniProt P11309); assay: Pim-1 kinase assay; conditions: 1 mM ATP; read-out: PIM1 IC50
Procedure, shortened: (§1)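 Biotin-BAD peptide (0.05 μM) phosphorylated with 1 mM ATP by 2.5 pM Pim-1 or 1.25 pM Pim-3 in Tris pH 7.5/MgCl2/DTT buffer, 1 h at 25° C. EDTA stop; phospho-BAD (Ser112) antibody with streptavidin donor and Protein-A acceptor beads, 1 h dark at room temperature before AlphaScreen-type bead read.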

Pim-3 = Pim-3 (Homo sapiens (Human), UniProt Q86V86); assay: Pim-3 kinase assay; conditions: 1 mM ATP; read-out: PIM3 IC50
Procedure, shortened: as §1

Sequence of Pim-2 (Q9P1W9 whole entry): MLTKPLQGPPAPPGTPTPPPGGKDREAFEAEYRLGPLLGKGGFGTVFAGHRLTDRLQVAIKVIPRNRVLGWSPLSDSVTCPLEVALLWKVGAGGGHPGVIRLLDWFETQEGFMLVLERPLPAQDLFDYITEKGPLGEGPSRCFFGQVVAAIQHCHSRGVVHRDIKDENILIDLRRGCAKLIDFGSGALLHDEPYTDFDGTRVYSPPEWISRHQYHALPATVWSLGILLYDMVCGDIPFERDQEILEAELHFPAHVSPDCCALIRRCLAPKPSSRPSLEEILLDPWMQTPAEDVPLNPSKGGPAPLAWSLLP
Sequence of Pim-1 (P11309 whole entry): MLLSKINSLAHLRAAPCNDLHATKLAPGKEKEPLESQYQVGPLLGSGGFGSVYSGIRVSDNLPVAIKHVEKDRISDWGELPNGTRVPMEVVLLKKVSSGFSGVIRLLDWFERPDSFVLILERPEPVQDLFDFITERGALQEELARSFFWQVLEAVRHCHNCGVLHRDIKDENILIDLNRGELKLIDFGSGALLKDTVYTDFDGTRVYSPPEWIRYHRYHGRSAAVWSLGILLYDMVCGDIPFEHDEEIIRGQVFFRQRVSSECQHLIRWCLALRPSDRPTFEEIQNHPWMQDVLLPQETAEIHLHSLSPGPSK

## C[C@@H]1C[C@H](N)C[C@H](c2ccncc2NC(=O)c2ccc(F)c3cc(N(C)C4CCCC4C#N)cnc23)C1 (stereo partly drawn) [Example 140, N-(4-((1R,3S,5S)-3-Amino-5-methylcyclohexyl)pyridin-3-yl)-3-((2-cyanocyclopentyl)(methyl)amino)-5-fluoroquinoline-8-carboxamide]
Pim-2
  IC50: ≤ 100 nM
Pim-1
  IC50: ≤ 10 nM
Pim-3
  IC50: ≤ 10 nM

## Cc1ccc(N(C)c2cnc3c(C(=O)Nc4cnccc4[C@@H]4C[C@H](C)C[C@H](N)C4)ccc(F)c3c2)c(C)n1 [Example 141, N-(4-((1R,3S,5S)-3-Amino-5-methylcyclohexyl)pyridin-3-yl)-3-((2,6-dimethylpyridin-3-yl)(methyl)amino)-5-fluoroquinoline-8-carboxamide]
Pim-2
  IC50: ≤ 100 nM
Pim-1
  IC50: ≤ 10 nM
Pim-3
  IC50: ≤ 10 nM

## C[C@@H]1C[C@H](N)C[C@H](c2ccncc2NC(=O)c2ccc(F)c3cc(N(C)c4ncccc4F)cnc23)C1 [Example 142, N-(4-((1R,3S,5S)-3-Amino-5-methylcyclohexyl)pyridin-3-yl)-5-fluoro-3-((3-fluoropyridin-2-yl)(methyl)amino)quinoline-8-carboxamide]
Pim-2
  IC50: ≤ 100 nM
Pim-1
  IC50: ≤ 10 nM
Pim-3
  IC50: ≤ 10 nM

## C[C@@H]1C[C@H](N)C[C@H](c2ccncc2NC(=O)c2ccc(F)c3cc(N(C)c4cnccc4C(F)(F)F)cnc23)C1 [Example 143, N-(4-((1R,3S,5S)-3-Amino-5-methylcyclohexyl)pyridin-3-yl)-5-fluoro-3-(methyl(4-(trifluoromethyl)pyridin-3-yl)amino)quinoline-8-carboxamide]
Pim-2
  IC50: ≤ 100 nM
Pim-1
  IC50: ≤ 10 nM
Pim-3
  IC50: ≤ 10 nM

## COc1ccc(N(C)c2cnc3c(C(=O)Nc4cnccc4[C@@H]4C[C@H](C)C[C@H](N)C4)ccc(F)c3c2)c(C)n1 [Example 144, N-(4-((1R,3S,5S)-3-Amino-5-methylcyclohexyl)pyridin-3-yl)-5-fluoro-3-((6-methoxy-2-methylpyridin-3-yl)(methyl)amino)quinoline-8-carboxamide]
Pim-2
  IC50: ≤ 100 nM
Pim-1
  IC50: ≤ 10 nM
Pim-3
  IC50: ≤ 10 nM

## C[C@@H]1C[C@H](N)C[C@H](c2ccncc2NC(=O)c2ccc(F)c3cc(N(C)c4ccncc4F)cnc23)C1 [Example 145, N-(4-((1R,3S,5S)-3-Amino-5-methylcyclohexyl)pyridin-3-yl)-5-fluoro-3-((3-fluoropyridin-4-yl)(methyl)amino)quinoline-8-carboxamide]
Pim-2
  IC50: ≤ 100 nM
Pim-1
  IC50: ≤ 10 nM
Pim-3
  IC50: ≤ 10 nM

## Cc1ccncc1N(C)c1cnc2c(C(=O)Nc3cnccc3[C@@H]3C[C@H](C)C[C@H](N)C3)ccc(F)c2c1 [Example 146, N-(4-((1R,3S,5S)-3-Amino-5-methylcyclohexyl)pyridin-3-yl)-5-fluoro-3-(methyl(4-methylpyridin-3-yl)amino)quinoline-8-carboxamide]
Pim-2
  IC50: ≤ 100 nM
Pim-1
  IC50: ≤ 10 nM
Pim-3
  IC50: ≤ 10 nM

## CC1CCC1N(C)c1cnc2c(C(=O)Nc3cnccc3[C@@H]3C[C@H](C)C[C@H](N)C3)ccc(F)c2c1 (stereo partly drawn) [Example 147, N-(4-((1R,3S,5S)-3-Amino-5-methylcyclohexyl)pyridin-3-yl)-5-fluoro-3-(methyl(2-methylcyclobutyl)amino)quinoline-8-carboxamide]
Pim-2
  IC50: ≤ 100 nM
Pim-1
  IC50: ≤ 10 nM
Pim-3
  IC50: ≤ 10 nM

## COc1ccc(N(C)c2cnc3c(C(=O)Nc4cnccc4[C@@H]4C[C@H](C)C[C@H](N)C4)ccc(F)c3c2)cc1 [Example 148, N-(4-((1R,3S,5S)-3-Amino-5-methylcyclohexyl)pyridin-3-yl)-5-fluoro-3-((4-methoxyphenyl)(methyl)amino)quinoline-8-carboxamide]
Pim-2
  IC50: ≤ 100 nM
Pim-1
  IC50: ≤ 10 nM
Pim-3
  IC50: ≤ 10 nM

## Cc1nccnc1N(C)c1cnc2c(C(=O)Nc3cnccc3[C@@H]3C[C@H](C)C[C@H](N)C3)ccc(F)c2c1 [Example 149, N-(4-((1R,3S,5S)-3-Amino-5-methylcyclohexyl)pyridin-3-yl)-5-fluoro-3-(methyl(3-methylpyrazin-2-yl)amino)quinoline-8-carboxamide]
Pim-2
  IC50: ≤ 100 nM
Pim-1
  IC50: ≤ 10 nM
Pim-3
  IC50: ≤ 10 nM
